The source of these data is patent US20220252575A1, “SCREENING METHOD AND TOXICITY EVALUATION METHOD” (Public University Corporation Yokohama City University, priority 2019, published 2022).

The data set has as its system iPS cell-derived human hepatic sinusoidal endothelial cells. The data set can be described thus: Detection of membrane attack complex in iPS cell-derived human hepatic sinusoidal endothelial cell with Oxaliplatin administration. The class given is cell-based. To be noted: Oxaliplatin final concentration 20 μM vs solvent (ethanol), 3% human serum, 10% organoid culture supernatant.

Take `O=C1[O][Pt]2([NH][C@@H]3CCCC[C@H]3[NH]2)[O]C1=O` [Oxaliplatin]: the “number of cells (quantified with DAPI as an index)” value (24 hr (FIG. 4A)) was “significant decrease in the number of cells”. For the same compound, the “amount of MAC formed by human serum” value (24 hr (FIG. 4B)) is “significantly increased”.
